Values of other authors, collected in patent US20240217930A1 (priority 2021, published 2024).

Key:
[1] = trials performed in cats; cited from earlier work
[2] = tested on: live virus; conditions: cited from earlier work
[3] = tested on: ten further coronavirus strains; conditions: read-out: Ki against ten further coronavirus strains; cited from earlier work

Row | Compound | side effects in cats [1] | activity in cell-based live virus assays [2] [µM] | Ki [3] [nM]
1 | CC(C)C[C@H](NC(=O)OCc1ccccc1)C(=O)N[C@@H](C[C@@H]1CCNC1=O)C(O)S(=O)(=O)[O-].[Na+] (stereo partly drawn) [GC376] | has shown side effects |  | 
2 | PF-00835231 |  | ~1 | 0.03 to 4
